Experiments:
[1] = tested on: primary mouse hepatocytes
[2] = in vivo; cited from earlier work
[3] = tested on: primary mouse hepatocytes; assay: Gene expression (Affymetrix Mouse Genome 430 2.0) in primary mouse hepatocytes, true vs false GTX, 24 h and 48 h

## Oc1cccc2cccnc12 [8Q, 8-Hydroxyquinoline]
[1]
  Gene expression data AF204959 (Cyp3a25 /// LOC622249): −0.4178
[2]
  GTX in vivo: −
[3]
  Gene expression AA561726 average: 0.1739
  Gene expression AF000969 average: −0.1809
  Gene expression AF022072 average: 0.0814
  Gene expression AF033112 average: −0.01703
  Gene expression AF055573 average: −0.09457
  Gene expression AF069954 average: 0.1841
  Gene expression AF297615 average: −0.009333
  Gene expression AF335325 average: 0.1418
  Gene expression AI594683 average: 0.1235
  Gene expression AI747296 average: −0.0009667
  Gene expression AK005731 average: −0.03997
  Gene expression AK007854 average: 0.05973
  Gene expression AK010447 average: 0.06223
  Gene expression AK010738 average: 0.3608
  Gene expression AK014608 average: −0.2447
  Gene expression AK017734 average: 0.0878
  Gene expression AK018383 average: 0.0679
  Gene expression AK019979 average: −0.2154
  Gene expression AV095209 average: 0.2602
  Gene expression AV141095 average: −0.1725
  Gene expression AV173869 average: −0.02557
  Gene expression AV216768 average: 0.1679
  Gene expression AV219418 average: 0.4492
  Gene expression AV221299 average: 0.1454
  Gene expression AV246296 average: −0.1136
  Gene expression AV251625 average: 0.03813
  Gene expression AV254764 average: 0.02403
  Gene expression AV327248 average: 0.1176
  Gene expression BB009155 average: 0.006467
  Gene expression BB027848 average: −0.06607
  Gene expression BB043558 average: −0.2347
  Gene expression BB046347 average: 0.1608
  Gene expression BB140436 average: 0.2861
  Gene expression BB204486 average: 0.1305
  Gene expression BB223872 average: 0.05753
  Gene expression BB246912 average: 0.3325
  Gene expression BB275142 average: 0.0112
  Gene expression BB458460 average: 0.1317
  Gene expression BB463610 average: −0.2369
  Gene expression BB730977 average: 0.3298
  Gene expression BB743970 average: 0.1936
  Gene expression BB770528 average: −0.01823
  Gene expression BB781615 average: −0.006367
  Gene expression BC003284 average: 0.09
  Gene expression BC004827 average: −0.07043
  Gene expression BC005552 average: 0.1343
  Gene expression BC006713 average: −0.1035
  Gene expression BC010318 average: 0.0565
  Gene expression BC012247 average: −0.006933
  Gene expression BC012955 average: −0.3049
  Gene expression BC013893 average: −0.1654
  Gene expression BC017615 average: −0.4904
  Gene expression BC019379 average: −0.1555
  Gene expression BC019882 average: −0.1719
  Gene expression BC021352 average: 0.4721
  Gene expression BC022148 average: 0.04497
  Gene expression BC025169 average: 0.02213
  Gene expression BC026131 average: −0.0852
  Gene expression BC027026 average: 0.2479
  Gene expression BC027121 average: −0.1207
  Gene expression BC027185 average: −0.1209
  Gene expression BE956581 average: 0.403
  Gene expression BF719766 average: −0.2717
  Gene expression BG065754 average: −0.0909
  Gene expression BG066491 average: −0.1771
  Gene expression BG076151 average: −0.1887
  Gene expression BG076333 average: −0.05333
  Gene expression BG797099 average: 0.0658
  Gene expression BG967046 average: −0.09257
  Gene expression BI651416 average: 0.06777
  Gene expression BI966443 average: 0.1335
  Gene expression BM198879 average: −0.05617
  Gene expression BM200015 average: 0.08087
  Gene expression BM230508 average: 0.07603
  Gene expression BM936480 average: 0.0483
  Gene expression BQ174991 average: −0.1546
  Gene expression L21027 average: 0.2905
  Gene expression NM_007556 average: 0.0638
  Gene expression NM_007980 average: −0.5064
  Gene expression NM_007987 average: 0.03487
  Gene expression NM_008522 average: 0.0486
  Gene expression NM_008935 average: 0.4082
  Gene expression NM_009897 average: 0.111
  Gene expression NM_011075 average: 0.1618
  Gene expression NM_011176 average: 0.1358

Source: patent US20120122727A1, “IN VITRO METHOD FOR PREDICTING WHETHER A COMPOUND IS GENOTOXIC IN VIVO” (priority 2009, published 2012)
